Measured values from PubChem BioAssay (NCI).
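Tested at 5 concentrations; 48 h exposure; 96-well plates; endpoints linearly interpolated, else capped at highest concentration. GI50: concentration for 50% inhibition of growth. TGI denotes the concentration required for complete inhibition of growth.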

Key:
Assay in all cases: NCI tumour cell line growth inhibition, 48 h
[1] = tested on: SK-MEL-2 melanoma
[2] = tested on: SF-539 CNS
[3] = tested on: SW-620 colon
[4] = tested on: SK-MEL-28 melanoma
[5] = tested on: MALME-3M melanoma
[6] = tested on: HL-60(TB) leukemia
[7] = tested on: UACC-257 melanoma
[8] = tested on: UACC-62 melanoma
[9] = tested on: NCI-H23 lung
[10] = tested on: UO-31 renal
[11] = tested on: COLO 205 colon
[12] = tested on: KM12 colon
[13] = tested on: BT-549 breast
[14] = tested on: RPMI-8226 leukemia
[15] = tested on: SF-268 CNS
[16] = tested on: T-47D breast
[17] = tested on: OVCAR-8 ovarian
[18] = tested on: IGROV1 ovarian
[19] = tested on: SK-MEL-5 melanoma
[20] = tested on: HS 578T breast
[21] = tested on: NCI/ADR-RES ovarian
[22] = tested on: OVCAR-5 ovarian
[23] = tested on: SNB-75 CNS
[24] = tested on: MOLT-4 leukemia
[25] = tested on: A549 NSCLC
[26] = tested on: SN12C renal
[27] = tested on: U251 CNS

Q: How did the GI50 [1] turn out when `CCCN1C/C(=C\c2ccc(O)c(OC)c2)C(=O)/C(=C/c2ccc(O)c(OC)c2)C1` was run?
A: Its GI50 is greater than 100 µM.

Q: What about the TGI [1] of the same molecule?
A: The TGI was greater than 100 µM.

Q: And the GI50 [2]?
A: The GI50 was greater than 100 µM.

Q: What about the TGI [2] of the same molecule?
A: Its TGI is greater than 100 µM.

Q: What about the GI50 [3] of the same molecule?
A: The GI50 was greater than 100 µM.

Q: What about the TGI [3] of the same molecule?
A: The TGI was greater than 100 µM.

Q: And the GI50 [4]?
A: The GI50 was greater than 100 µM.

Q: What about the TGI [4] of the same molecule?
A: The TGI was greater than 100 µM.

Q: And the GI50 [5]?
A: Its GI50 is greater than 100 µM.

Q: What about the TGI [5] of the same molecule?
A: Its TGI is greater than 100 µM.

Q: What about the GI50 [6] of the same molecule?
A: The GI50 was greater than 100 µM.

Q: And the TGI [6]?
A: Its TGI is greater than 100 µM.

Q: And the GI50 [7]?
A: Its GI50 is greater than 100 µM.

Q: What about the TGI [7] of the same molecule?
A: Its TGI is greater than 100 µM.

Q: What about the GI50 [8] of the same molecule?
A: The GI50 was greater than 100 µM.

Q: What about the TGI [8] of the same molecule?
A: The TGI was greater than 100 µM.

Q: And the GI50 [9]?
A: Its GI50 is greater than 100 µM.

Q: What about the TGI [9] of the same molecule?
A: The TGI was greater than 100 µM.

Q: What about the GI50 [10] of the same molecule?
A: The GI50 was greater than 100 µM.

Q: What about the TGI [10] of the same molecule?
A: Its TGI is greater than 100 µM.

Q: What about the GI50 [11] of the same molecule?
A: Its GI50 is greater than 100 µM.

Q: What about the TGI [11] of the same molecule?
A: Its TGI is greater than 100 µM.

Q: What about the GI50 [12] of the same molecule?
A: The GI50 was greater than 100 µM.

Q: And the TGI [12]?
A: Its TGI is greater than 100 µM.

Q: What about the GI50 [13] of the same molecule?
A: Its GI50 is greater than 100 µM.

Q: What about the TGI [13] of the same molecule?
A: The TGI was greater than 100 µM.

Q: What about the GI50 [14] of the same molecule?
A: Its GI50 is greater than 100 µM.

Q: What about the TGI [14] of the same molecule?
A: Its TGI is greater than 100 µM.

Q: What about the GI50 [15] of the same molecule?
A: The GI50 was greater than 100 µM.

Q: What about the TGI [15] of the same molecule?
A: Its TGI is greater than 100 µM.

Q: What about the GI50 [16] of the same molecule?
A: Its GI50 is greater than 100 µM.

Q: What about the TGI [16] of the same molecule?
A: Its TGI is greater than 100 µM.

Q: And the GI50 [17]?
A: Its GI50 is greater than 100 µM.

Q: What about the TGI [17] of the same molecule?
A: The TGI was greater than 100 µM.

Q: And the GI50 [18]?
A: The GI50 was greater than 100 µM.

Q: And the TGI [18]?
A: Its TGI is greater than 100 µM.

Q: And the GI50 [19]?
A: The GI50 was greater than 100 µM.

Q: And the TGI [19]?
A: The TGI was greater than 100 µM.

Q: And the GI50 [20]?
A: Its GI50 is greater than 100 µM.

Q: And the TGI [20]?
A: Its TGI is greater than 100 µM.

Q: And the GI50 [21]?
A: Its GI50 is greater than 100 µM.

Q: What about the TGI [21] of the same molecule?
A: The TGI was greater than 100 µM.

Q: What about the GI50 [22] of the same molecule?
A: The GI50 was greater than 100 µM.

Q: What about the TGI [22] of the same molecule?
A: Its TGI is greater than 100 µM.

Q: What about the GI50 [23] of the same molecule?
A: The GI50 was greater than 100 µM.

Q: And the TGI [23]?
A: Its TGI is greater than 100 µM.

Q: What about the GI50 [24] of the same molecule?
A: Its GI50 is greater than 100 µM.

Q: And the TGI [24]?
A: Its TGI is greater than 100 µM.

Q: What about the GI50 [25] of the same molecule?
A: The GI50 was greater than 100 µM.

Q: What about the TGI [25] of the same molecule?
A: The TGI was greater than 100 µM.

Q: And the GI50 [26]?
A: The GI50 was greater than 100 µM.

Q: What about the TGI [26] of the same molecule?
A: Its TGI is greater than 100 µM.

Q: What about the GI50 [27] of the same molecule?
A: Its GI50 is greater than 100 µM.

Q: What about the TGI [27] of the same molecule?
A: The TGI was greater than 100 µM.
